Measured values from patent US20250213735A1, “NEUROPEPTIDE Y1 RECEPTOR (NPY1R) TARGETED THERAPEUTICS AND USES THEREOF” (Radionetics Oncology, Inc., priority 2023, published 2025).

Molecular target: hNPY1R (Homo sapiens (Human), UniProt P25929)
Experiment: NPY1R binding assay (SK-N-MC membrane, [125I]-Peptide YY competition);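 also: bound radioligand separated by filtration over GF/C filter plates and counted, Ki obtained by non-linear regression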
Details: crude SK-N-MC membranes endogenously expressing NPY1R; [125I]-Peptide YY (human) 0.05 nM; 120 min at room temperature; read-out: hNPY1R binding Ki

hNPY1R, sequence (P25929 whole entry): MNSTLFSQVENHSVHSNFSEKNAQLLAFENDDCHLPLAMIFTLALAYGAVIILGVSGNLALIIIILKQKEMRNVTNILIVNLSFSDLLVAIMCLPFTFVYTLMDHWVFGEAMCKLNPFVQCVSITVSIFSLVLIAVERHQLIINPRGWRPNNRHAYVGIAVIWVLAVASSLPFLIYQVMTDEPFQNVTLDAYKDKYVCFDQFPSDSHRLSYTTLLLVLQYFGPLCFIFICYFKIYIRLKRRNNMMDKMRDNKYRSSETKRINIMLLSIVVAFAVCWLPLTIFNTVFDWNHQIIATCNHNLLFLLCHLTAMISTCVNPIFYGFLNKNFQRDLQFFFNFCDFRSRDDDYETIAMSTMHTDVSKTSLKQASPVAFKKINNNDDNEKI

First: N=C(N)NCCC[C@@H](NC(=O)C(c1ccccc1)N1CCN(c2ccccc2)CC1)C(=O)NCc1ccc(O)cc1 (stereo partly drawn) [compound 76, (2R)-5-guanidino-N-(4-hydroxybenzyl)-2-(2-phenyl-2-(4-phenylpiperazin-1-yl)acetamido)pentanamide]
Second: N=C(N)NCCC[C@@H](NC(=O)[C@H](c1ccccc1)N1Cc2ccccc2C1)C(=O)NCc1ccc(O)cc1 [compound 70, (R)-5-guanidino-N-(4-hydroxybenzyl)-2-((S)-2-(isoindolin-2-yl)-2-phenylacetamido)pentanamide]
The Ki of the first is higher: over 1000 nM for the first, 10 to 100 nM for the second.

`CC1(C)C2CN([C@H](C(=O)N[C@H](CCCNC(=N)N)C(=O)NCc3ccc(O)cc3)c3ccccc3)CC21` (stereo partly drawn) [88A, (2R)-2-((2S)-2-(6,6-dimethyl-3-azabicyclo[3.1.0]hexan-3-yl)-2-phenylacetamido)-5-guanidino-N-(4-hydroxybenzyl)pentanamide] and `CC1(C)CCN(C(C(=O)N[C@H](CCCNC(=N)N)C(=O)NCc2ccc(O)cc2)c2ccccc2)CC1` (stereo partly drawn) [compound 74, (2R)-2-(2-(4,4-dimethylpiperidin-1-yl)-2-phenylacetamido)-5-guanidino-N-(4-hydroxybenzyl)pentanamide] fall in the same range of Ki: 100 to 1000 nM for the first, 100 to 1000 nM for the second.

Compared with `CCC(=O)NCCNC(=O)/N=C(/N)NCCC[C@@H](NC(=O)[C@@H](c1ccc(OCCCNC(=O)CCCCCNC(=O)CN2CCN(CC(=O)O)CCN(CC(=O)O)CCN(CC(=O)O)CC2)cc1)N1Cc2ccccc2C1)C(=O)NCc1ccc(O)cc1` [1B, 2,2′,2″-(10-(2-((6-((3-(4-((1R,4R,Z)-9-amino-4-((4-hydroxybenzyl)carbamoyl)-1-(isoindolin-2-yl)-2,11,16-trioxo-3,8,10,12,15-pentaazaoctadec-9-en-1-yl)phenoxy)propyl)-amino)-6-oxohexyl)amino)-2-oxoethyl)-1,4,7,10-tetraazacyclododecane-1,4,7-triyl)triacetic acid-2,2,2-trifluoroacetic acid (1/1)], `CCC(=O)NCCNC(=O)/N=C(/N)NCCC[C@@H](NC(=O)[C@H](c1ccc(OCCCNC(=O)CCCCCNC(=O)CN2CCN(CC(=O)O)CCN(CC(=O)O)CCN(CC(=O)O)CC2)cc1)N1Cc2ccccc2C1)C(=O)NCc1ccc(O)cc1` [1A, 2,2′,2″-(10-(2-((6-((3-(4-((1S,4R,Z)-9-amino-4-((4-hydroxybenzyl)carbamoyl)-1-(isoindolin-2-yl)-2,11,16-trioxo-3,8,10,12,15-pentaazaoctadec-9-en-1-yl)phenoxy)propyl)amino)-6-oxohexyl)amino)-2-oxoethyl)-1,4,7,10-tetraazacyclododecane-1,4,7-triyl)triacetic acid] is lower in Ki: 100 to 1000 nM for the first, under 10 nM for the second. The second binds more tightly here.

`CCC(=O)NCCNC(=O)/N=C(/N)NCCC[C@@H](NC(=O)[C@H](c1cccc(NCCCNc2c(NCCCCCCNC(=O)CN3CCN(CC(=O)O)CCN(CC(=O)O)CCN(CC(=O)O)CC3)c(=O)c2=O)c1)N1Cc2ccccc2C1)C(=O)NCc1ccc(O)cc1` [compound 2, 2,2′,2″-(10-(2-((6-((2-((3-((3-((1S,4R,Z)-9-amino-4-((4-hydroxybenzyl)carbamoyl)-1-(isoindolin-2-yl)-2,11,16-trioxo-3,8,10,12,15-pentaazaoctadec-9-en-1-yl)phenyl)amino)propyl)amino)-3,4-dioxocyclobut-1-en-1-yl)amino)hexyl)amino)-2-oxoethyl)-1,4,7,10-tetraazacyclododecane-1,4,7-triyl)triacetic acid-formic acid (1/1)] and `CCC(=O)NCCNC(=O)/N=C(/N)NCCC[C@@H](NC(=O)[C@H](c1cccc(NCCCNC(=O)CCCCCNC(=O)NCCONC(=O)CN2CCN(CC(=O)O)CCN(CC(=O)O)CCN(CC(=O)O)CC2)c1)N1Cc2ccccc2C1)C(=O)NCc1ccc(O)cc1` [compound 27, 2,2′,2″-(10-(19-((3-((1S,4R,Z)-9-amino-4-((4-hydroxybenzyl)carbamoyl)-1-(isoindolin-2-yl)-2,11,16-trioxo-3,8,10,12,15-pentaazaoctadec-9-en-1-yl)phenyl)amino)-2,8,15-trioxo-4-oxa-3,7,9,16-tetraazanonadecyl)-1,4,7,10-tetraazacyclododecane-1,4,7-triyl)triacetic acid] cannot be ordered by Ki: under 10 nM for the first, under 10 nM for the second.

`CCC(=O)NCCNC(=O)/N=C(/N)NCCC[C@@H](NC(=O)[C@H](c1ccc(OCCCNC(=O)CCC(=O)NCCNC(=O)CCC(C(=O)O)N2CCN(CC(=O)O)CCN(CC(=O)O)CCN(CC(=O)O)CC2)cc1)N1Cc2ccccc2C1)C(=O)NCc1c(F)cc(O)cc1F` (stereo partly drawn) [compound 49, 2,2′,2″-(10-(4-((2-(4-((3-(4-((1S,4R,Z)-9-amino-4-((2,6-difluoro-4-hydroxybenzyl)carbamoyl)-1-(isoindolin-2-yl)-2,11,16-trioxo-3,8,10,12,15-pentaazaoctadec-9-en-1-yl)phenoxy)propyl)amino)-4-oxobutanamido)ethyl)amino)-1-carboxy-4-oxobutyl)-1,4,7,10-tetraazacyclododecane-1,4,7-triyl)triacetic acid] and `CCC(=O)NCCNC(=O)/N=C(/N)NCCC[C@@H](NC(=O)[C@H](c1ccc(OCCCNC(=O)CCNC(=O)CN2CCN(CC(=O)O)CCN(CC(=O)O)CCN(CC(=O)O)CC2)cc1)N1Cc2ccccc2C1)C(=O)NCc1c(F)cc(O)cc1F` [compound 47, 2,2′,2″-(10-(2-((3-((3-(4-((1S,4R,Z)-9-amino-4-((2,6-difluoro-4-hydroxybenzyl)carbamoyl)-1-(isoindolin-2-yl)-2,11,16-trioxo-3,8,10,12,15-pentaazaoctadec-9-en-1-yl)phenoxy)propyl)amino)-3-oxopropyl)amino)-2-oxoethyl)-1,4,7,10-tetraazacyclododecane-1,4,7-triyl)triacetic acid] cannot be ordered by Ki: under 10 nM for the first, under 10 nM for the second.

`CCC(=O)NCCNC(=O)/N=C(/N)NCCC[C@@H](NC(=O)[C@H](c1ccc(OCCCNC(=O)CCN(C)CCNC(=O)CN2CCN(CC(=O)O)CCN(CC(=O)O)CCN(CC(=O)O)CC2)cc1)N1Cc2ccccc2C1)C(=O)NCc1c(F)cc(O)cc1F` [compound 55, 2,2′,2″-(10-(2-((2-((3-((3-(4-((1S,4R,Z)-9-amino-4-((2,6-difluoro-4-hydroxybenzyl)carbamoyl)-1-(isoindolin-2-yl)-2,11,16-trioxo-3,8,10,12,15-pentaazaoctadec-9-en-1-yl)phenoxy)propyl)amino)-3-oxopropyl)(methyl)amino)ethyl)amino)-2-oxoethyl)-1,4,7,10-tetraazacyclododecane-1,4,7-triyl)triacetic acid] and `CCC(=O)NCCNC(=O)/N=C(/N)NCCC[C@@H](NC(=O)[C@H](c1ccc(OCCCNC(=O)C[C@H](O)C[C@H](O)CCNC(=O)CN2CCN(CC(=O)O)CCN(CC(=O)O)CCN(CC(=O)O)CC2)cc1)N1Cc2ccccc2C1)C(=O)NCc1c(F)cc(O)cc1F` [compound 6, 2,2′,2″-(10-(2-(((3R,5R)-7-((3-(4-((1S,4R,Z)-9-amino-4-((2,6-difluoro-4-hydroxybenzyl)carbamoyl)-1-(isoindolin-2-yl)-2,11,16-trioxo-3,8,10,12,15-pentaazaoctadec-9-en-1-yl)phenoxy)propyl)amino)-3,5-dihydroxy-7-oxoheptyl)amino)-2-oxoethyl)-1,4,7,10-tetraazacyclododecane-1,4,7-triyl)triacetic acid-2,2,2-trifluoroacetic acid (1/1)] cannot be ordered by Ki: under 10 nM for the first, under 10 nM for the second.

`CCC(=O)NCCNC(=O)/N=C(/N)NCCC[C@@H](NC(=O)[C@H](c1cccc(N(C)CCCNC(=O)CCCCCNC(=O)CN2CCN(CC(=O)O)CCN(CC(=O)O)CCN(CC(=O)O)CC2)c1)N1Cc2ccccc2C1)C(=O)NCc1ccc(O)cc1` [compound 11, 2,2′,2″-(10-(2-((6-((3-((3-((1S,4R,Z)-9-amino-4-((4-hydroxybenzyl)carbamoyl)-1-(isoindolin-2-yl)-2,11,16-trioxo-3,8,10,12,15-pentaazaoctadec-9-en-1-yl)phenyl)(methyl)amino)propyl)amino)-6-oxohexyl)amino)-2-oxoethyl)-1,4,7,10-tetraazacyclododecane-1,4,7-triyl)triacetic acid] and `CCC(=O)NCCNC(=O)/N=C(/N)NCCC[C@@H](NC(=O)[C@H](c1cccc(NCCCNC(=O)C[C@H](O)C[C@H](O)CCNC(=O)CN2CCN(CC(=O)O)CCN(CC(=O)O)CCN(CC(=O)O)CC2)c1)N1Cc2ccccc2C1)C(=O)NCc1ccc(O)cc1` [compound 29, 2,2′,2″-(10-(2-(((3R,5R)-7-((3-((3-((1S,4R,Z)-9-amino-4-((4-hydroxybenzyl)carbamoyl)-1-(isoindolin-2-yl)-2,11,16-trioxo-3,8,10,12,15-pentaazaoctadec-9-en-1-yl)phenyl)amino)propyl)amino)-3,5-dihydroxy-7-oxoheptyl)amino)-2-oxoethyl)-1,4,7,10-tetraazacyclododecane-1,4,7-triyl)triacetic acid] cannot be ordered by Ki: under 10 nM for the first, under 10 nM for the second.

`CCC(=O)NCCNC(=O)/N=C(/N)NCCC[C@@H](NC(=O)[C@H](c1ccc(OCCCN)cc1)N1Cc2ccccc2C1)C(=O)NCc1ccc(O)cc1` [64A, (R)-2-((S)-2-(4-(3-aminopropoxy)phenyl)-2-(isoindolin-2-yl)acetamido)-N-(4-hydroxybenzyl)-5-((Z)-2-((2-propionamidoethyl)carbamoyl)guanidino)pentanamide] and `CCC(=O)NCCNC(=O)/N=C(/N)NCCC[C@@H](NC(=O)[C@H](c1ccc(OCCCNC(=O)[C@@H](CO)NC(=O)CCNC(=O)CN2CCN(CC(=O)O)CCN(CC(=O)O)CCN(CC(=O)O)CC2)cc1)N1Cc2ccccc2C1)C(=O)NCc1c(F)cc(O)cc1F` [compound 48, 2,2′,2″-(10-(2-((3-(((R)-1-((3-(4-((1S,4R,Z)-9-amino-4-((2,6-difluoro-4-hydroxybenzyl)carbamoyl)-1-(isoindolin-2-yl)-2,11,16-trioxo-3,8,10,12,15-pentaazaoctadec-9-en-1-yl)phenoxy)propyl)amino)-3-hydroxy-1-oxopropan-2-yl)amino)-3-oxopropyl)amino)-2-oxoethyl)-1,4,7,10-tetraazacyclododecane-1,4,7-triyl)triacetic acid] cannot be ordered by Ki: under 10 nM for the first, under 10 nM for the second.
